# In the supplement of paper PMC10307832:
# Assays:
# Test in all cases: relative viability (nuclei count vs DMSO), 5 days (fraction); higher = more cells survive
# Metformin + Linsitinib = compound: CN(C)C(=N)NC(=N)N [Metformin] + C[C@]1(O)C[C@@H](c2nc(-c3ccc4ccc(-c5ccccc5)nc4c3)c3c(N)nccn32)C1 [Linsitinib] (partner 1 µM)
# In short: (§1)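 Lung cancer cell lines in 1536-well plates were dosed by pin tool the day after seeding, either with one drug alone or with a fixed anchor-drug dose plus five library-drug doses (not always all listed) in √10 steps. After 5 days, cells were fixed and their nuclei stained in one step (final 0.05% Triton X-100, 1% formaldehyde, 1 ug/ml Hoechst), then counted on 4× images. Relative viability is the nuclei count in treated wells divided by that in vehicle wells. Values are medians of duplicate plates.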
# Apatinib + Crizotinib = compound: N#CC1(c2ccc(NC(=O)c3cccnc3NCc3ccncc3)cc2)CCCC1 [Apatinib] + C[C@@H](Oc1cc(-c2cnn(C3CCNCC3)c2)cnc1N)c1c(Cl)ccc(F)c1Cl [Crizotinib] (partner 1 µM)
# In short: as §1
# Apatinib + Pemetrexed = compound: N#CC1(c2ccc(NC(=O)c3cccnc3NCc3ccncc3)cc2)CCCC1 [Apatinib] + Nc1nc2[nH]cc(CCc3ccc(C(=O)N[C@@H](CCC(=O)O)C(=O)O)cc3)c2c(=O)[nH]1 [Pemetrexed] (partner 0.2 µM)
# In short: as §1
# Apatinib + Olaparib = compound: N#CC1(c2ccc(NC(=O)c3cccnc3NCc3ccncc3)cc2)CCCC1 [Apatinib] + O=C(c1cc(Cc2n[nH]c(=O)c3ccccc23)ccc1F)N1CCN(C(=O)C2CC2)CC1 [Olaparib] (partner 8 µM)
# In short: as §1
Cell Line,relative viability (Metformin + Linsitinib; first compound 10 µM),relative viability (Metformin + Linsitinib; first compound 31.62 µM),relative viability (Metformin + Linsitinib; first compound 100 µM),relative viability (Metformin + Linsitinib; first compound 316.23 µM),relative viability (Metformin + Linsitinib; first compound 1000 µM),relative viability (Apatinib + Crizotinib; first compound 0.08 µM),relative viability (Apatinib + Crizotinib; first compound 0.253 µM),relative viability (Apatinib + Crizotinib; first compound 0.8 µM),relative viability (Apatinib + Crizotinib; first compound 2.53 µM),relative viability (Apatinib + Crizotinib; first compound 8 µM),relative viability (Apatinib + Pemetrexed; first compound 0.08 µM),relative viability (Apatinib + Pemetrexed; first compound 0.253 µM),relative viability (Apatinib + Pemetrexed; first compound 0.8 µM),relative viability (Apatinib + Pemetrexed; first compound 2.53 µM),relative viability (Apatinib + Pemetrexed; first compound 8 µM),relative viability (Apatinib + Olaparib; first compound 0.08 µM),relative viability (Apatinib + Olaparib; first compound 0.253 µM),relative viability (Apatinib + Olaparib; first compound 0.8 µM),relative viability (Apatinib + Olaparib; first compound 2.53 µM),relative viability (Apatinib + Olaparib; first compound 8 µM)
NCI-H2126,0.633,0.735,0.687,0.703,0.721,1.03,0.945,1.07,0.957,0.894,0.741,0.674,0.736,0.671,0.641,0.973,0.861,0.88,0.845,0.904
CAL-12T,0.818,0.81,0.824,0.691,0.759,0.801,0.569,0.694,0.695,0.459,1.38,1.25,1.1,0.897,0.917,0.723,0.673,0.647,0.638,0.583
NCI-H358,1.04,0.937,0.959,1.13,1.31,0.682,0.586,0.525,0.54,0.43,0.173,0.165,0.233,0.163,0.128,0.681,0.559,0.553,0.569,0.453
HCC-44,0.712,0.679,0.695,0.597,0.654,0.807,0.858,0.779,0.716,0.705,0.677,0.626,0.616,0.63,0.521,0.989,1,0.924,0.97,0.971
EKVX,0.739,0.969,1.04,0.861,0.9,0.793,1.06,0.941,0.654,0.671,0.434,0.357,0.379,0.342,0.346,0.801,0.793,0.88,0.734,0.587
NCI-H1734,0.99,0.954,1.05,0.844,0.946,0.67,0.812,0.76,0.596,0.579,0.452,0.456,0.429,0.403,0.255,0.675,0.622,0.61,0.56,0.565
NCI-H1395,0.997,1.15,0.934,1.02,0.385,–,–,–,–,–,0.913,0.802,0.881,0.685,0.635,0.485,0.459,0.488,0.452,0.395
SW 900,–,–,–,–,–,–,–,–,–,–,0.486,0.467,0.427,0.379,0.321,0.974,0.823,0.842,0.714,0.606
NCI-H1975,1.09,1.26,1.07,1.18,1.31,1,0.967,0.78,0.814,0.78,0.296,0.299,0.271,0.282,0.203,0.795,0.77,0.727,0.723,0.634
Calu-6,0.862,0.971,0.921,0.941,0.978,0.789,0.855,0.726,0.599,0.594,–,–,–,–,–,0.618,0.648,0.541,0.426,0.393
EBC-1,0.796,0.997,0.815,0.698,0.884,0.211,0.185,0.178,0.211,0.208,–,–,–,–,–,0.76,0.698,0.65,0.588,0.472
NCI-H1792,–,0.742,0.803,0.632,0.664,0.97,0.988,0.949,0.96,0.832,0.984,0.722,0.993,0.558,0.447,0.416,0.588,0.341,0.224,0.216
NCI-H596,1.11,1.18,1.32,1.08,1.25,0.923,1.12,1.07,0.861,0.969,0.541,0.539,0.494,0.405,0.442,0.822,0.73,0.722,0.65,0.634
NCI-H1650,–,–,–,–,–,1.13,1.03,0.9,0.92,0.842,0.386,0.347,0.325,0.37,0.378,0.827,0.787,0.799,0.761,0.696
NCI-H1944,1.36,1.39,1.34,1.27,1.26,1.03,1.17,0.998,0.983,0.911,0.687,0.562,0.501,0.456,0.51,0.407,0.378,0.37,0.346,0.319
HCC-827,–,0.89,0.945,0.883,0.973,0.969,0.887,0.767,0.83,0.575,0.254,0.25,0.247,0.231,0.258,0.68,0.628,0.644,0.54,0.561
NCI-H441,0.432,–,0.536,0.478,0.605,0.789,0.756,0.809,0.416,0.426,0.302,0.274,0.261,0.205,0.192,0.684,0.612,0.505,0.561,0.367
LCLC-103H,1.05,1.26,1.06,1.12,1.19,1.02,1.05,1.01,0.97,1.07,0.439,0.463,0.412,0.432,0.39,0.753,0.713,0.745,0.712,0.753
